# Laboratory results as given in patent US11939320B2, “Modulators of the integrated stress pathway” (Calico Life Sciences LLC, priority 2017, dated 2024).
# System: HEK293T cells carrying the ATF4 luciferase reporter
# Assay: ATF4-Luc assay (in vitro model of VWMD)
# Assay type: cell-based
# Conditions: Homo sapiens, HEK-293T; HEK293T cells with ATF4 5'-UTR firefly luciferase reporter; 1 μg/mL tunicamycin; 7 hours; One Glo luminescence
# Experimental: In order to test exemplary compounds of the invention in a cellular context, a stable VWMD cell line was first constructed. The ATF4 reporter was prepared by fusing the human full-length ATF4 5′-UTR (NCBI Accession No. BC022088.2) in front of the firefly luciferase (FLuc) coding sequence lacking the initiator methionine as described in Sidrauski et al (eLife 2013). The construct was used to produce recombinant retroviruses using standard methods and the resulting viral supernatant was used to transduce HEK293T cells, which were then subsequently selected with puromycin to generate a stable cell line.
# HEK293T cells carrying the ATF4 luciferase reporter were plated on polylysine coated 384-well plates (Greiner Bio-one) at 30,000 cells per well. Cells were treated the next day with 1 μg/mL tunicamycin and 200 nM of a compound of Formula (I) for 7 hours. Luminescence was measured using One Glo (Promega) as specified by the manufacturer. Cells were maintained in DMEM with L-glutamine supplemented with 10% heat-inactivated FBS (Gibco) and Antibiotic-Antimycotic solution (Gibco).
# Table 2 below summarizes the EC50 data obtained using the ATF4-Luc assay for exemplary compounds of the invention.
row,Structure (SMILES),EC50 [µM]
1,"O=C(COc1ccc(Cl)c(F)c1)N[C@H]1CC[C@H](C(=O)N2CCN(c3cccc(Cl)c3)C(=O)C2)CC1 [Compound 126, 2-(4-chloro-3-fluorophenoxy)-N-{(1r,4r)-4-[4-(3-chlorophenyl)-3-oxopiperazine-1-carbonyl]cyclohexyl}acetamide]",0.5 to 2
2,"O=C(COc1ccc(Cl)c(F)c1)N[C@H]1CC[C@H](C(=O)N2CCN(c3ccc(Cl)cc3)CC2)CC1 [Compound 127, 2-(4-chloro-3-fluorophenoxy)-N-{(1r,4r)-4-[4-(4-chlorophenyl)piperazine-1-carbonyl]cyclohexyl}acetamide]",> 2
3,"O=C(COc1ccc(Cl)c(F)c1)N[C@H]1CC[C@H](C(=O)N2CCC(c3ccc(Cl)cc3)CC2)CC1 [Compound 128, 2-(4-chloro-3-fluorophenoxy)-N-{(1r,4r)-4-[4-(4-chlorophenyl)piperidine-1-carbonyl]cyclohexyl}acetamide]",> 2
4,"O=C(COc1ccc(Cl)c(F)c1)N[C@H]1CC[C@H](C(=O)N2CC(c3ccc(Cl)cc3)C2)CC1 [Compound 129, 2-(4-chloro-3-fluorophenoxy)-N-{(1r,4r)-4-[3-(4-chlorophenyl)azetidine-1-carbonyl]cyclohexyl}acetamide]",< 0.01
5,"O=C(COc1ccc(Cl)c(F)c1)N[C@H]1CC[C@H](C(=O)N2CC(O)(c3ccc(Cl)cc3)C2)CC1 [Compound 130, 2-(4-chloro-3-fluorophenoxy)-N-{(1r,4r)-4-[3-(4-chlorophenyl)-3-hydroxyazetidine-1-carbonyl]cyclohexyl}acetamide]",0.05 to 0.25
6,"O=C(COc1ccc(Cl)c(F)c1)N[C@H]1CC[C@H](C(=O)N2CC(c3ccccc3)C2)CC1 [Compound 131, 2-(4-chloro-3-fluorophenoxy)-N-[(1r,4r)-4-(3-phenylazetidine-1-carbonyl)cyclohexyl]acetamide]",0.01 to 0.05
7,"O=C(COc1ccc(Cl)c(F)c1)N[C@H]1CC[C@H](C(=O)N2Cc3ccc(Cl)cc3C2)CC1 [Compound 132, N-[(1r,4r)-4-(5-chloro-1,3-dihydro-2H-isoindole-2-carbonyl)cyclohexyl]-2-(4-chloro-3-fluorophenoxy)acetamide]",0.01 to 0.05
8,"O=C(COc1ccc(Cl)c(F)c1)N[C@H]1CC[C@@H](C(=O)N2CC(c3ccc(Cl)cc3)C2)CC1 [Compound 133, 2-(4-chloro-3-fluorophenoxy)-N-{(1s,4s)-4-[3-(4-chlorophenyl)azetidine-1-carbonyl]cyclohexyl}acetamide]",> 2
9,"O=C(COc1ccc(Cl)c(F)c1)N[C@@H]1CC[C@@H](C(=O)N2CC(c3ccc(C(F)(F)F)cc3)C2)OC1 [Compound 134, 2-(4-chloro-3-fluorophenoxy)-N-[(3R,6S)-6-{3-[4-(trifluoromethyl)phenyl]azetidine-1-carbonyl}oxan-3-yl]acetamide]",< 0.01
10,"O=C(COc1ccc(Cl)c(F)c1)N[C@@H]1CC[C@@H](C(=O)NCc2nc(C(F)(F)F)c[nH]2)OC1 [Compound 135, (2S,5R)-5-[2-(4-chloro-3-fluorophenoxy)acetamido]-N-{[4-(trifluoromethyl)-1H-imidazol-2-yl]methyl}oxane-2-carboxamide]",0.05 to 0.25
11,"Cc1cc(CNC(=O)[C@@H]2CC[C@@H](NC(=O)COc3ccc(Cl)c(F)c3)CO2)n(C)n1 [Compound 136, (2S,5R)-5-[2-(4-chloro-3-fluorophenoxy)acetamido]-N-[(1,3-dimethyl-1H-pyrazol-5-yl)methyl]oxane-2-carboxamide]",> 2
12,"O=C(COc1ccc(Cl)c(F)c1)N[C@@H]1CC[C@@H](C(=O)NCCOc2ccc(Cl)cc2)OC1 [Compound 137, (2S,5R)-5-[2-(4-chloro-3-fluorophenoxy)acetamido]-N-[2-(4-chlorophenoxy)ethyl]oxane-2-carboxamide]",0.01 to 0.05
13,"O=C(COc1ccc(Cl)c(F)c1)N[C@@H]1CC[C@@H](C(=O)NCc2cn3ccc(Cl)cc3n2)OC1 [Compound 138, (2S,5R)-5-[2-(4-chloro-3-fluorophenoxy)acetamido]-N-[(7-chloroimidazo[1,2-a]pyridin-2-yl)methyl]oxane-2-carboxamide]",0.01 to 0.05
14,"O=C(COc1ccc(Cl)c(F)c1)N[C@@H]1CC[C@@H](C(=O)NCc2cnc(C(F)(F)F)nc2)OC1 [Compound 139, (2S,5R)-5-[2-(4-chloro-3-fluorophenoxy)acetamido]-N-{[2-(trifluoromethyl)pyrimidin-5-yl]methyl}oxane-2-carboxamide]",0.25 to 0.5
15,"COc1ncc(CNC(=O)[C@@H]2CC[C@@H](NC(=O)COc3ccc(Cl)c(F)c3)CO2)cn1 [Compound 140, (2S,5R)-5-[2-(4-chloro-3-fluorophenoxy)acetamido]-N-[(2-methoxypyrimidin-5-yl)methyl]oxane-2-carboxamide]",> 2
16,"O=C(COc1ccc(Cl)c(F)c1)N[C@@H]1CC[C@@H](C(=O)NC2(c3ccc(Cl)cc3)CC2)OC1 [Compound 141, (2S,5R)-5-[2-(4-chloro-3-fluorophenoxy)acetamido]-N-[1-(4-chlorophenyl)cyclopropyl]oxane-2-carboxamide]",> 2
17,"O=C(COc1ccc(Cl)c(F)c1)N[C@@H]1CC[C@@H](C(=O)NCc2cc3cc(Cl)ccc3[nH]2)OC1 [Compound 142, (2S,5R)-5-[2-(4-chloro-3-fluorophenoxy)acetamido]-N-[(5-chloro-1H-indol-2-yl)methyl]oxane-2-carboxamide]",0.05 to 0.25
18,"O=C(COc1ccc(Cl)c(F)c1)N[C@@H]1CC[C@@H](C(=O)N2CCC(c3ccc(Cl)cc3)C2)OC1 (stereo partly drawn) [Compound 143, 2-(4-chloro-3-fluorophenoxy)-N-{(3R,6S)-6-[3-(4-chlorophenyl)pyrrolidine-1-carbonyl]oxan-3-yl}acetamide]",0.5 to 2
19,"O=C(COc1ccc(Cl)c(F)c1)N[C@@H]1CC[C@@H](C(=O)N2CCn3c(nnc3C(F)(F)F)C2)OC1 [Compound 144, 2-(4-chloro-3-fluorophenoxy)-N-{(3R,6S)-6-[3-(trifluoromethyl)-5,6-dihydro[1,2,4]triazolo[4,3-a]pyrazine-7(8H)-carbonyl]oxan-3-yl}acetamide]",> 2
20,"O=C(COc1ccc(Cl)c(F)c1)N[C@@H]1CC[C@@H](C(=O)Nc2nccc(-c3ccc(Cl)c(F)c3)n2)OC1 [Compound 145, (2S,5R)-5-[2-(4-chloro-3-fluorophenoxy)acetamido]-N-[4-(4-chloro-3-fluorophenyl)pyrimidin-2-yl]oxane-2-carboxamide]",0.5 to 2
21,"O=C(COc1ccc(Cl)c(F)c1)N[C@@H]1CC[C@@H](C(=O)NCCc2ccc(Cl)cc2)OC1 [Compound 146, (2S,5R)-5-[2-(4-chloro-3-fluorophenoxy)acetamido]-N-[2-(4-chlorophenyl)ethyl]oxane-2-carboxamide]",0.05 to 0.25
22,"O=C(COc1ccc(C(F)(F)F)nc1)N[C@H]1CC[C@H](C(=O)NCc2nc3cc(Cl)ccc3[nH]2)CC1 [Compound 147, (1r,4r)-N-[(5-chloro-1H-benzimidazol-2-yl)methyl]-4-(2-{[6-(trifluoromethyl)pyridin-3-yl]oxy}acetamido)cyclohexane-1-carboxamide]",> 2
23,"O=C(COc1ccc2c(c1)OC(F)(F)O2)N[C@H]1CC[C@H](C(=O)NCc2nc3cc(Cl)ccc3[nH]2)CC1 [Compound 148, (1r,4r)-N-[(5-chloro-1H-benzimidazol-2-yl)methyl]-4-{2-[(2,2-difluoro-2H-1,3-benzodioxol-5-yl)oxy]acetamido}cyclohexane-1-carboxamide]",0.05 to 0.25
24,"O=C(COc1ccc(F)c(F)c1)N[C@H]1CC[C@H](C(=O)NCc2nc3cc(Cl)ccc3[nH]2)CC1 [Compound 149, (1r,4r)-N-[(5-chloro-1H-benzimidazol-2-yl)methyl]-4-[2-(3,4-difluorophenoxy)acetamido]cyclohexane-1-carboxamide]",0.05 to 0.25
25,"O=C(COc1ccc(Cl)c(F)c1)N[C@H]1CC[C@H](C(=O)NCc2nc3cc(Cl)ccc3[nH]2)CC1 [Compound 150, (1r,4r)-N-[(5-chloro-1H-benzimidazol-2-yl)methyl]-4-[2-(4-chloro-3-fluorophenoxy)acetamido]cyclohexane-1-carboxamide]",0.01 to 0.05
26,"O=C(COc1ccc(Cl)c(Cl)c1)N[C@H]1CC[C@H](C(=O)NCc2nc3cc(F)c(F)cc3[nH]2)CC1 [Compound 152, (1r,4r)-4-[2-(3,4-dichlorophenoxy)acetamido]-N-[(5,6-difluoro-1H-benzimidazol-2-yl)methyl]cyclohexane-1-carboxamide]",> 2
27,"O=C(COc1ccc(Cl)c(F)c1)N[C@H]1CC[C@H](C(=O)NCc2nc3cc(F)c(F)cc3[nH]2)CC1 [Compound 153, (1r,4r)-4-[2-(4-chloro-3-fluorophenoxy)acetamido]-N-[(5,6-difluoro-1H-benzimidazol-2-yl)methyl]cyclohexane-1-carboxamide]",> 2
28,"O=C(COc1ccc(F)c(F)c1)N[C@H]1CC[C@H](C(=O)NCc2nc3cc(F)c(F)cc3[nH]2)CC1 [Compound 154, (1r,4r)-N-[(5,6-difluoro-1H-benzimidazol-2-yl)methyl]-4-[2-(3,4-difluorophenoxy)acetamido]cyclohexane-1-carboxamide]",> 2
29,"O=C(COc1ccc(Cl)cc1)N[C@H]1CC[C@H](C(=O)NCc2nc3cc(F)c(F)cc3[nH]2)CC1 [Compound 155, (1r,4r)-4-[2-(4-chlorophenoxy)acetamido]-N-[(5,6-difluoro-1H-benzimidazol-2-yl)methyl]cyclohexane-1-carboxamide]",0.5 to 2
